# Source: patent publication US5496947A, “Quinolone carboxylic acid derivatives” (Dong Wha Pharmaceutical Industrial Co., Ltd., priority 1994, dated 1996)
# Where two headings read alike, the source gives them in different places.
# Legend:
# Assay type in all cases: cell-based
# [1] = tested on: Serratia marcescens ATCC 8100; test: MIC, 2-fold dilution method in micro-well plate, S. marcescens
# Description: (§1) The in vitro antibiotic activity of the present compound is measured using 2-fold dilution method with a micro-well plate and the bacteria are inoculated in about 10^5 cfu/ml after an overnight culture in a brain-heart infusion (BHI) broth at 37° C. The novel compounds of the present invention are converted to a hydrochloride salt form and diluted with a sterilized distilled water to make 10 mg/ml aqueous solution. After the mother liquor wherein the compound is diluted to the two-fold concentration has been obtained in the form of an aqueous solution, the respective 0.1 ml of diluted liquor is transferred to a well and is inoculated with 0.1 ml of the culture fluid to make about (10^5 -10^6)/2 cfu/ml.
# (§2) After cultivation at 37° C., the minimum inhibitory concentration (MIC) is measured and recorded in Table I-V.
# (§3) Table I-V show the minimum inhibitory concentrations (MIC).
# Serratia marcescens ATCC 8100
# [2] = tested on: Citrobacter freundii ATCC 8090; test: MIC, 2-fold dilution method in micro-well plate, C. freundii
# Description: as §1, §2, §3
# Citrobacter freundii ATCC 8090
# [3] = tested on: Acinetobacter calcoaceticus; test: MIC, 2-fold dilution method in micro-well plate, A. calcoaceticus
# Description: as §1, §2
# Table I-V show the minimum inhibitory concentrations (MIC). […]
# [4] = tested on: Shigella flexneri ATCC 12022; test: MIC, 2-fold dilution method in micro-well plate, S. flexneri; conditions: S. flexneri ATCC12022, 37° C., read-out: Minimum Inhibitory Concentration
# Description: as §1, §2, §3
# Shigella flexneri ATCC 12022
# [5] = tested on: Streptococcus pyrogens ATCC 19615; test: MIC, 2-fold dilution method in micro-well plate, S. pyrogens; conditions: S. pyrogenes ATCC19615, 37° C., read-out: Minimum Inhibitory Concentration
# Description: as §1, §2, §3
# Streptococcus pyrogens ATCC 19615
# [6] = tested on: Pseudomonas aeruginosa ATCC 27853; test: MIC, 2-fold dilution method in micro-well plate, P. aeruginosa
# Description: as §1, §2, §3
# Pseudomonas aeruginosa ATCC 27853
# [7] = tested on: Shigella sonnei ATCC 25931; test: MIC, 2-fold dilution method in micro-well plate, S. sonnei; conditions: S. sonnei ATCC25931, 37° C., read-out: Minimum Inhibitory Concentration
# Description: as §1, §2, §3
# Shigella sonnei ATCC 25931
# [8] = tested on: Haemophilus influenza ATCC 35056; test: MIC, 2-fold dilution method in micro-well plate, H. influenzae; conditions: H. influenzae ATCC35056, 37° C.; read-out: Minimum Inhibitory Concentration
# Description: as §1, §2, §3
# Haemophilus influenza ATCC 35056
# [9] = tested on: Streptococcus pneumoniae ATCC 6303; test: MIC, 2-fold dilution method in micro-well plate, S. pneumoniae; conditions: S. pneuinoniae ATCC6303, 37° C., read-out: Minimum Inhibitory Concentration
# Description: as §1, §2, §3
# Streptococcus pneumoniae ATCC 6303
# [10] = tested on: Escherichia coli ATCC 25922; test: MIC, 2-fold dilution method in micro-well plate, E. coli
# Description: as §1, §2, §3
# Escherichia coli ATCC 25922
# [11] = tested on: Salmonella typhimurium ATCC 14028; test: MIC, 2-fold dilution method in micro-well plate, S. typhimurium; conditions: Salmonella enterica, read-out: Minimum Inhibitory Concentration
# Description: as §1, §2, §3
# Salmonella typhimurium ATCC 14028
# Enterobacter cloacae = test: MIC, 2-fold dilution method in micro-well plate, E. cloacae; conditions: read-out: Minimum Inhibitory Concentration
# Description: as §1, §2, §3
# Enterobacter cloacae ATCC 23355
# [12] = tested on: Streptococcus faecalis ATCC 19433; test: MIC, 2-fold dilution method in micro-well plate, S. faecalis ATCC 19433; conditions: Enterococcus faecalis; S. faecalis ATCC19433, 37° C.; read-out: Minimum Inhibitory Concentration
# Description: as §1, §2, §3
# Streptococcus faecalis ATCC 19433
# [13] = tested on: Proteus vulgaris ATCC 13315; test: MIC, 2-fold dilution method in micro-well plate, P. vulgaris
# Description: as §1, §2, §3
# Proteus vulgaris ATCC 13315
# [14] = tested on: Enterobacter aerogenes ATCC 13048; test: MIC, 2-fold dilution method in micro-well plate, E. aerogenes; conditions: Klebsiella aerogenes
# Description: as §1, §2, §3
# Enterobacter aerogenes ATCC 13048
# [15] = tested on: Streptococcus faecalis ATCC 29212; test: MIC, 2-fold dilution method in micro-well plate, S. faecalis ATCC 29212; conditions: Enterococcus faecalis; S. faecalis ATCC29212, 37° C.; read-out: Minimum Inhibitory Concentration
# Description: as §1, §2, §3
# Streptococcus faecalis ATCC 29212
# [16] = tested on: Klebsiella pneumoniae ATCC 13883; test: MIC, 2-fold dilution method in micro-well plate, K. pneumoniae
# Description: as §1, §2, §3
# Klebsiella pneumoniae ATCC 13883
# [17] = ATCC8100, read-out: Minimum Inhibitory Concentration
# [18] = ATCC8090, read-out: Minimum Inhibitory Concentration
# [19] = P. aerugirnosa ATCC27853, 37° C., read-out: Minimum Inhibitory Concentration
# [20] = ATCC25922, read-out: Minimum Inhibitory Concentration
# [21] = ATCC13315, read-out: Minimum Inhibitory Concentration
# [22] = ATCC13048, read-out: Minimum Inhibitory Concentration
# [23] = ATCC13883, read-out: Minimum Inhibitory Concentration
# [24] = S. marcescens ATCC8100, 37° C., read-out: Minimum Inhibitory Concentration
# [25] = A. calcoaceticus ATCC8090 (as in tables), 37° C., read-out: Minimum Inhibitory Concentration
# [26] = E. coli ATCC25922, 37° C., read-out: Minimum Inhibitory Concentration
# [27] = ATCC27853, read-out: Minimum Inhibitory Concentration
# [28] = P. vulgaris ATCC13315, 37° C., read-out: Minimum Inhibitory Concentration
# [29] = C. freundii ATCC8090, 37° C., read-out: Minimum Inhibitory Concentration
SMILES,"MIC [1, 17]","MIC [2, 18]","MIC [3, 18]",MIC [4],MIC [5],"MIC [6, 19]",MIC [7],MIC [8],MIC [9],"MIC [10, 20]",MIC [11],MIC (Enterobacter cloacae),MIC [12],"MIC [13, 21]","MIC [14, 22]",MIC [15],"MIC [16, 23]","MIC [1, 24]","MIC [3, 25]","MIC [10, 26]",other results
"CC1CN(c2cc3c(cc2F)c(=O)c(C(=O)O)cn3-c2ccncc2F)CCN1.Cl (centres unmarked) [Example 3, 1-(3-fluoro-4-pyridyl)-6-fluoro-7-(3-methyl-1-piperazinyl)-1,4-dihydro-4-oxoquinoline-3-carboxylic acid hydrochloride]",0.625 µg/mL,1.25 µg/mL,0.625 µg/mL,2.5 µg/mL,10 µg/mL,0.625 µg/mL,0.625 µg/mL,1.25 µg/mL,5 µg/mL,0.625 µg/mL,0.625 µg/mL,0.625 µg/mL,2.5 µg/mL,0.625 µg/mL,1.25 µg/mL,5 µg/mL,0.625 µg/mL,,,,
"Cl.O=C(O)c1cn(-c2ccc(F)cn2)c2cc(N3CCNCC3)c(F)cc2c1=O [Example 17, 1-(5-fluoro-2-pyridyl)-6-fluoro-7-(1-piperazinyl)-1,4-dihydro-4-oxoquinoline-3-carboxylic acid hydrochloride]",,1.25 µg/mL,,0.625 µg/mL,5 µg/mL,1.25 µg/mL,0.625 µg/mL,1.25 µg/mL,5 µg/mL,,1.25 µg/mL,1.25 µg/mL,5 µg/mL,0.625 µg/mL,1.25 µg/mL,2.5 µg/mL,0.625 µg/mL,2.5 µg/mL,2.5 µg/mL,0.313 µg/mL,
"Cl.N[C@H]1CCN(c2nc3c(cc2F)c(=O)c(C(=O)O)cn3-c2ccncc2F)C1 [Example 11, 1-(3-fluoro-4-pyridyl)-6-fluoro-7-[(3S)-3-amino-1-pyrrolidinyl]-1,4-dihydro-4-oxo-1,8-naphthyridine-3-carboxylic acid hydrochloride]",0.156 µg/mL,0.156 µg/mL,,0.156 µg/mL,2.5 µg/mL,,0.01 µg/mL,0.156 µg/mL,1.25 µg/mL,,0.156 µg/mL,0.156 µg/mL,0.625 µg/mL,,0.156 µg/mL,0.625 µg/mL,0.156 µg/mL,,1.25 µg/mL,0.078 µg/mL,"MIC [6, 27]: 0.156 µg/mL; MIC [13, 28]: 0.313 µg/mL"
"CC1CN(c2nc3c(cc2F)c(=O)c(C(=O)O)cn3-c2ccncc2F)CCN1.Cl (centres unmarked) [Example 9, 1-(3-fluoro-4-pyridyl)-6-fluoro-7-(3-methyl-1-piperazinyl)-1,4-dihydro-4-oxo-1,8-naphthyridine-3-carboxylic acid hydrochloride]",1.25 µg/mL,1.25 µg/mL,,0.625 µg/mL,10 µg/mL,,0.625 µg/mL,1.25 µg/mL,5 µg/mL,0.625 µg/mL,0.625 µg/mL,0.625 µg/mL,2.5 µg/mL,0.625 µg/mL,0.625 µg/mL,2.5 µg/mL,1.25 µg/mL,,10 µg/mL,,"MIC [6, 27]: 0.625 µg/mL"
"CC1CN(c2nc3c(cc2F)c(=O)c(C(=O)O)cn3-c2ccncc2F)CC(C)N1.Cl (centres unmarked) [Example 10, 1-(3-fluoro-4-pyridyl)-6-fluoro-7-(3,5-dimethyl-1-piperazinyl)-1,4-dihydro-4-oxo-1,8-naphthyridine-3-carboxylic acid hydrochloride]",,,,0.625 µg/mL,10 µg/mL,,0.625 µg/mL,0.625 µg/mL,5 µg/mL,,0.625 µg/mL,0.625 µg/mL,2.5 µg/mL,0.625 µg/mL,,5 µg/mL,0.625 µg/mL,2.5 µg/mL,10 µg/mL,1.25 µg/mL,"MIC [2, 29]: 1.25 µg/mL; MIC [6, 27]: 0.25 µg/mL; MIC ([14]; E. aerogenes ATCC13048, 37° C., read-out: Minimum Inhibitory Concentration): 1.25 µg/mL"
"Cl.NC1CCN(c2cc3c(cc2F)c(=O)c(C(=O)O)cn3-c2ccc(F)cn2)C1 (centres unmarked) [Example 21, 1-(5-fluoro-2-pyridyl)-6-fluoro-7-(3-amino-1-pyrrolidinyl)-1,4-dihydro-4-oxoquinoline-3-carboxylic acid hydrochloride]",,,0.156 µg/mL,0.078 µg/mL,2.5 µg/mL,0.313 µg/mL,0.02 µg/mL,0.078 µg/mL,2.5 µg/mL,,0.156 µg/mL,0.156 µg/mL,1.25 µg/mL,,0.156 µg/mL,1.25 µg/mL,,0.078 µg/mL,,0.078 µg/mL,"MIC [2, 29]: 0.078 µg/mL; MIC [13, 28]: 0.078 µg/mL; MIC ([16]; K. pneumoniae ATCC13883, 37° C., read-out: Minimum Inhibitory Concentration): 0.078 µg/mL"
"Cl.O=C(O)c1cn(-c2ccc(F)cn2)c2nc(N3CCNCC3)c(F)cc2c1=O [Example 12, 1-(5-fluoro-2-pyridyl)-6-fluoro-7-(1-piperazinyl)-1,4-dihydro-4-oxo-1,8-naphthyridine-3-carboxylic acid hydrochloride]",1.25 µg/mL,1.25 µg/mL,0.625 µg/mL,0.625 µg/mL,5 µg/mL,1.25 µg/mL,0.313 µg/mL,1.25 µg/mL,5 µg/mL,0.313 µg/mL,1.25 µg/mL,0.625 µg/mL,5 µg/mL,0.625 µg/mL,0.625 µg/mL,5 µg/mL,0.625 µg/mL,,,,
